Source: the NIST ThermoML archive (doi:10.1016/j.jct.2007.03.002)
“And” between values parts separate entries of the source, which are not always exact repeats. Identical values can stand only once. ± gives the expanded uncertainty stated by the source.

How the values were obtained:
[1] = Crystal; for vapor or sublimation pressure: Calculated from knudsen effusion weight loss; for Normal melting temperature: DTA
[2] = Molar enthalpy of transition or fusion; conditions: Crystal; DSC
[3] = molar heat capacity at constant pressure; conditions: 298.15 K; 101.33 kPa; Crystal; Drop calorimetry
[4] = molar enthalpy of vaporization or sublimation; conditions: 298.15 K; Crystal; Static calorimetry

Row | Structure (SMILES) | vapor or sublimation pressure ([1]; 313 K) | vapor or sublimation pressure ([1]; 316 K) | vapor or sublimation pressure ([1]; 319 K) | vapor or sublimation pressure ([1]; 322 K) | Normal melting temperature [1] | Molar enthalpy of transition or fusion [2] | molar heat capacity at constant pressure [3] | molar enthalpy [4] | mass density ([1]; 298.15 K, 101.33 kPa, mass and size of pellet)
1 | OCc1ccccc1-c1ccccc1 [2-biphenylmethanol] | 0.0001171 ± 3.5e-05 kPa and 0.0001179 ± 3.6e-05 kPa | 0.0001736 ± 5.2e-05 kPa | 0.0002555 ± 7.7e-05 kPa and 0.0002537 ± 7.7e-05 kPa | 0.0003732 ± 0.00011 kPa and 0.0003682 ± 0.00011 kPa | 49.2 ± 0.7 °C | 19.7 ± 0.5 kJ/mol | 268.98 ± 22 J/K/mol | 107 ± 1.3 kJ/mol | 
2 | OCc1ccc(-c2ccccc2)cc1 [4-biphenylmethanol] |  |  |  |  | 100.6 ± 0.7 °C | 27 ± 0.6 kJ/mol | 256.08 ± 66 J/K/mol | 107 ± 3.6 kJ/mol | 1390 ± 360 kg/m3
